This is an account of results in US9439874B2, “Food composition for nourishing, maintaining and cultivating a variety of stem cells and a method for manufacturing the same” (THE WRITER OF RESVERATROL BIOTECH R&D CO., LTD., priority 2012, dated 2016).

Series [1] concerns rat mesenchymal stem cells. The conditions noted are these: cited from earlier work.
For series [2], the system named is human telomerase reverse transcriptase (hTERT). As to conditions: dose- and time-dependent; cited from earlier work.
The subject of series [3] is human lung adenocarcinoma A549 cells. As to conditions: 20 μM, EGF-induced; cited from earlier work.
For series [4], the system named is nematodes, drosophila, African Carp and mouse. The conditions noted are these: cited from earlier work.
Another series has as its system Lymphoma Raji cells. As to conditions: in vitro; cited from earlier work.
In a further series the test system is MDA-MB-231 cell. As to conditions: combination with TRAIL; cited from earlier work.
The conditions of series [5]: cited from earlier work.
The nature of series [6]: isomerization under irradiation of UV analyzer. In kind it is physicochemical. The conditions noted are these: UV analyzer 136 μw/cm^2, embedded vs unembedded. An excerpt: 2. Solutions to the problem of cis & trans structures and transformation of resveratrol. Trans-resveratrol is very instable and will transform into cis-resveratrol under the UV irradiation. After its aqueous solution (pH1-7) kept in dark place for 28 day, 4.7% of the trans-resveratrol will transform into cis-resveratrol. Low water solubility and poor stability under UV irradiation restrict the all-purpose application. Therefore, HP-β-CD is used to embed the resveratrol into inclusion compound. […] Moreover, the food formula packaged by capsule solves the problems of oxidization misgivings and stability.

Series [7] relates to malignant glioma cell line U87 and cancer stem cells (CSCs). As to conditions: cited from earlier work.
The subject of the next series is L-8. As to conditions: mouse, in vivo; cited from earlier work.
The subject of a further series is cancer stem cells. As to conditions: cited from earlier work.
For series [8], the system named is human gastric cancer BGC823 cells. The conditions noted are these: cited from earlier work.
The subject of series [9] is human laryngeal cancer Hep-2 cell. As to conditions: cited from earlier work.
For a further series, the system named is Lewis lung carcinoma. The conditions noted are these: mouse, in vivo; cited from earlier work.
Series [10] has as its system cervical cancer Hela cells. As to conditions: cited from earlier work.
The test system of another series is esophageal cancer cell. As to conditions: cited from earlier work.

Take `O=c1c(O)c(-c2ccc(O)c(O)c2)oc2cc(O)cc(O)c12` [quercetin]: the “proliferation and differentiation of mesenchymal stem cells of bone marrow” value in series [1] is “promote”. Besides, in [1] (differentiation of mesenchymal stem cells), the “expression of BMP2 mRNA” value is “increase”.
As for `Oc1ccc(C=Cc2cc(O)cc(O)c2)cc1` [resveratrol], the “expression of hTERT mRNA and protein” value in series [2] is given as “down-regulated”. Further, in [3], the “A549 cells' invasion” value is “inhibit”. Further, in series [4], the prolongation of life is 30-75%. In the series on Lymphoma Raji cells, the “IL-8 mRNA expression of lymphoma Raji cells” value was “inhibit” and the “proliferation of lymphoma Raji cells” value was “inhibit”. Moreover, the TRAIL-induced cell apoptosis result with MDA-MB-231 cell is recorded as “enhanced”. Further, the “solubility in organic solvents” value in [5] (ethyl ether, chloroform, methanol, ethanol, acetone, acetic ether) is listed as “soluble”. The solubility in water result in series [5] (water) is recorded as “hardly soluble (slightly soluble)”. For the same compound, the “isomerization under UV irradiation” value in series [6] is “quickens up isomerization”. Besides, in series [7], the “apoptosis of U87 and cancer stem cells” value was “induce”. Also, the “tumor-bearing mice L-8 generation” value in the series with L-8 is on record as “inhibit”. For the same compound, the “cancer stem cells survival” value with cancer stem cells (high concentration of resveratrol with radiotherapy) is on record as “one-third”. The enhancement of radiotherapy in the series on cancer stem cells (high concentration of resveratrol, mice bearing tumor) was 30%-50%. Also, in series [8], the “proliferation of BGC823 cells” value is recorded as “inhibit”. Moreover, the “telomerase activity in BGC823” value in series [8] (with the extension of the time) is reported as “declined”. In series [9], the Hep-2 cell proliferation entry was “suppress”. Further, in the series with Lewis lung carcinoma, the “growth of Lewis lung carcinoma in mice” value is listed as “inhibiting the growth”. The “in vitro growth of cervical cancer Hela cells” value in series [10] is on record as “obvious inhibition effects”. Besides, in the series with esophageal cancer cell, the “esophageal cancer cell apoptosis” value was “induce”.
